The source of these data is US10414797B2, “Gelatinase inhibitors and use thereof” (Iproteos S.L, priority 2015, dated 2019).

What all share (assay type): biochemical
One experiment concerns the target MMP-3 (Homo sapiens (Human), UniProt P08254). The experiment in a line: MMP-3 inhibition assay (fluorogenic peptide substrate). The note with it: recombinant MMP-3 7.7 nM, Mca-RPKPVE-Nval-WRK(Dnp)-NH2 10 μM, 4 hours at room temperature; tested at 1, 10, 100 and 200 μM. As to the method: (§1) All the experiments were done in 1× reaction buffer, which was obtained from a 10× reaction buffer solution. The content of the 10× reaction buffer was: 50 mL of 0.5 M Tris-HCl, 1.5 M NaCl, 50 mM CaCl2 and 2 mM sodium azide at pH 7.6. To obtain the 1× reaction buffer 4 mL of the 10× reaction buffer were diluted in 36 mL of H2O.
Recombinant MMP-3 expressed in E. Coli was obtained from Merck-Millipore (catalog number 44217). Mca-RPKPVE-Nval-WRK(Dnp)-NH2 (fluorogenic peptide substrate) was obtained from R&D Systems (catalog number ES002).
Preparation of the MMP-3 for the activity assay: MMP-3 was provided as a stock solution (0.1 mg/mL). The enzyme was diluted in water to a final concentration of 0.005 mg/mL.
MMP-3 peptide substrate was provided as a stock solution in DMSO (4.5 mM). For the assay, the substrate was diluted 1× reaction buffer to a concentration of 100 μM.
Procedure: The enzymatic assays were performed in 96-well microtiter plate, which allowed simultaneous monitoring of multiple reactions. For each reaction, 84.6 μL of 1× reaction buffer (pH 7.6), 3.4 μL of MMP-3 (final concentration 7.7 nM) and 2 μL of the corresponding new compound were added to each well. A stock solution of new compound was prepared in DMSO (100 mM), and dilutions were prepared from this stock solution with DMSO. Finally, to the mixture contained in each well 10 μL of the substrate were added (final concentration 10 μM). The reaction was incubated for 4 hours at room temperature in an orbital shaker (90 rpm).
(§2) The inhibitory activity of the new compound was measured fluorimetrically. The excitation and emission wavelengths were 320 and 405 nm, respectively.
(§3) Inhibitory activity at several concentration points (1, 10, 100 and 200 μM) were measured for each compound. The inhibitory activity on MMP-1, MMP-3 and MMP-7 was calculated according to eq 1 and The IC50 value was calculated as explained above for MMP-2 and MMP-9.

In a further experiment the target is MMP-1 (Homo sapiens (Human), UniProt P03956). Kind of experiment: MMP-1 inhibition assay (fluorogenic peptide substrate). The note with it: recombinant MMP-1 5.52 nM, Mca-PLGL-Dpa-AR-NH2 10 μM, 4 hours at room temperature; tested at 1, 10, 100 and 200 μM. As to the method: as §1
Sequence of MMP-1 (P03956 100-269): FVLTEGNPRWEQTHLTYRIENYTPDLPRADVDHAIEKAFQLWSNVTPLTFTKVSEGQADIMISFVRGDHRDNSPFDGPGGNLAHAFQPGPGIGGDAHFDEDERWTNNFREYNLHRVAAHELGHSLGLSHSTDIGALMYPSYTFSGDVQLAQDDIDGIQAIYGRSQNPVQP
Recombinant MMP-1 expressed in E. Coli was obtained from Enzo Life Sciences (catalog number BML-SE180). Mca-PLGL-Dpa-AR-NH2 (fluorogenic peptide substrate) was obtained from R&D Systems (catalog number ES001).
Preparation of the MMP-1 for the activity assay: MMP-1 was provided as a stock solution (0.55 mg/mL). The enzyme was diluted in 1× reaction buffer to a final concentration of 276 nM.
MMP-1 peptide substrate was provided as a stock solution in DMSO (6 mM). For the assay, the substrate was diluted 1× reaction buffer to a concentration of 100 μM.
Procedure: The enzymatic assays were performed in 96-well microtiter plate, which allowed simultaneous monitoring of multiple reactions. For each reaction, 86 μL of 1× reaction buffer (pH 7.6), 2 μL of MMP-1 (final concentration 5.52 nM) and 2 μL of the corresponding new compound were added to each well. A stock solution of the new compound was prepared in DMSO (100 mM), and dilutions were prepared from this stock solution with DMSO. Finally, to the mixture contained in each well 10 μL of the substrate were added (final concentration 10 μM). The reaction was incubated for 4 hours at room temperature in an orbital shaker (100 rpm).
as §2, §3

The next experiment has as its target MMP-2 (Homo sapiens (Human), UniProt P08253). The experiment in a line: MMP-2 inhibition assay (fluorimetric, DQ gelatin substrate). Particulars: recombinant MMP-2 (CHO cells) 85 ng/mL, DQ gelatin 50 μg/mL, 2 hours at room temperature, pH 7.6. The method, then: as §1
Recombinant MMP-2 expressed in Chinese hamster ovary (CHO) cells was obtained from Merck-Millipore (catalog number PF023-5UG). DQ gelatin from pig skin fluorescein conjugated (MMP-2 substrate) was obtained from Life Technologies (catalog number E12055).
Preparation of the MMP-2 for the activity assay: MMP-2 was provided as a stock solution (0.1 mg/mL). The enzyme was diluted in 1× reaction buffer to a final concentration of 5 μg/mL.
Preparation of the DQ gelatin (substrate) solution for the activity assay: the solid form of the substrate was dissolved in water in order to obtain a stock solution of 1 mg/mL.
Procedure: The enzymatic assays were performed in 96-well microtiter plate, which allowed simultaneous monitoring of multiple reactions. For each reaction, 86.3 μL of 1× reaction buffer (pH 7.6), 1.7 μL of MMP-2 (final concentration 85 ng/mL) and 2 μL of the corresponding new compound were added to each well. A stock solution of new compound was prepared in DMSO (100 mM), and dilutions were prepared from this stock solution with DMSO. Finally, to the mixture contained in each well 10 μL of the substrate were added (final concentration 50 μg/mL). The reaction was incubated for 2 hours at room temperature in an orbital shaker (100 rpm).
The inhibitory activity of the new compound was measured fluorimetrically. The excitation and emission wavelengths were 483 and 525 nm, respectively.
Inhibitory activity at several concentration points (ranging from 100 pM to 200 μM MMP) were measured for each compound. The inhibitory activity on MMP-2 and MMP-9 was calculated according to eq 1. For each new compound, the fluorescence in the presence (a) and in the absence (b) of the corresponding MMP was measured. The maximum fluorescence (0% inhibitory activity) was obtained from a sample of the corresponding MMP in the absence of inhibitory compounds. To estimate the inhibitory potency of the novel compounds, activities were plotted against the log concentration of the compound, adjusting to a sigmoid curve using GraphPad Prism software, and the IC50 value, defined as the concentration of compound required to inhibit 50% of the corresponding MMP activity, was determined from resulting curve.
a corresponds to fluorescence intensity in the presence of substrate+test compound+MMP
b corresponds to the fluorescence intensity in the presence of substrate+tested compound
c corresponds to the fluorescence intensity in the presence of substrate+MMP
d corresponds to the fluorescence intensity of the presence of substrate

Where a SMILES comes first, the peptide text is derived from it. [ ]: non-standard residue; d: D form. The star is where a group is joined. ξ: configuration not given here. Pro(trans-4-F) = O=C(O)[C@@H]1C[C@@H](F)CN1; Benzoyl(3,5-F2) = O=C(c1cc(F)cc(F)c1)*; NMeIle(3ξ) = CCC(C)[C@H](NC)C(=O)O; NMeA = CN[C@@H](C)C(=O)O; Dab = NCC[C@H](N)C(=O)O; Hexanoyl = CCCCCC(=O)*; Bz = O=C(c1ccccc1)*; NHOH = ON*

Sequence of MMP-3 (P08254 100-477): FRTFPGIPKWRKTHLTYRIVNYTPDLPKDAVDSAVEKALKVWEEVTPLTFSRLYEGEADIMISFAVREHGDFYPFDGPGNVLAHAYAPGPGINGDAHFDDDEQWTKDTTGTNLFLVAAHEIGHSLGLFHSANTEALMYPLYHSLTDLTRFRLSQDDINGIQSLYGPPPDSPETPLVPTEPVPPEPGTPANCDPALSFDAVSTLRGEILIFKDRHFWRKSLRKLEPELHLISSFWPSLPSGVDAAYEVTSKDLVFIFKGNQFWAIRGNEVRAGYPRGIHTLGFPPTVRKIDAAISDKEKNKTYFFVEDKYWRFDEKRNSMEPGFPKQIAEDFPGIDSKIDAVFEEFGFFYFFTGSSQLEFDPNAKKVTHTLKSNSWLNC
Sequence of MMP-2 (P08253 110-660): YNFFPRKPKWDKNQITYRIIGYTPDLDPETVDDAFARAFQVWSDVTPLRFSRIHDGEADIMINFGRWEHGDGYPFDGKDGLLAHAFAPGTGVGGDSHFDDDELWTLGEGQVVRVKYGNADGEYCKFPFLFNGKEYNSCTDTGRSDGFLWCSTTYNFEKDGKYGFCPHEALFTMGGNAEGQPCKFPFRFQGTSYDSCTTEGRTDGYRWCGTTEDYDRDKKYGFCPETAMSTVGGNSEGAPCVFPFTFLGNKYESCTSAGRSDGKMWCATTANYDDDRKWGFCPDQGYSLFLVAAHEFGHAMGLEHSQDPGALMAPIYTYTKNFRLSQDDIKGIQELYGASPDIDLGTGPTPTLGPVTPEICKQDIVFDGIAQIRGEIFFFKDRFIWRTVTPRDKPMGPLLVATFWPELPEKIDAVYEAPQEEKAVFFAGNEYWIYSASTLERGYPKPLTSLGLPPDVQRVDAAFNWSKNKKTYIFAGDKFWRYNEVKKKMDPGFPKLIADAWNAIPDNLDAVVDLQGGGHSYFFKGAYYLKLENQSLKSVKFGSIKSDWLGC

With `CCCCCC(=O)N1CCC[C@H]1C(=O)N(C)[C@H](C(=O)N[C@@H](CCNC(=O)c1cc(F)cc(F)c1)C(=O)NO)C(C)CC` (stereo partly drawn) [Example 3, (2S)—N-[(1S)-1-[[(1S)-3-[(3,5-difluorobenzoyl)amino]-1-(hydroxycarbamoyl)propyl]carbamoyl]-2-methyl-butyl]-1-hexanoyl-N-methyl-pyrrolidine-2-carboxamide], the half-inhibitory concentration (IC50) (commonly the concentration that gives 50% inhibition) on MMP-3 was 25.4 µM; at MMP-1, 6.82 µM; on MMP-2, 0.081 µM.
In the case of `CCC(C)[C@@H](C(=O)N[C@@H](CCNC(=O)c1cc(F)cc(F)c1)C(=O)NO)N(C)C(=O)[C@@H]1CCCN1C(=O)CC(C)C` (stereo partly drawn) [Example 5, (2S)—N-[(1S)-1-[[(1S)-3-[(3,5-difluorobenzoyl)amino]-1-(hydroxycarbamoyl)propyl]carbamoyl]-2-methyl-butyl]-N-methyl-1-(3-methylbutanoyl)pyrrolidine-2-carboxamide], the concentration for half-maximal inhibition (IC50) at MMP-3 amounted to 25.7 µM; at MMP-1, 6.68 µM; on MMP-2, 0.116 µM.
In the same order, the values of `CCCC(=O)N1CCC[C@H]1C(=O)N(C)[C@H](C(=O)N[C@@H](CCNC(=O)c1cc(F)cc(F)c1)C(=O)NO)C(C)CC` (stereo partly drawn) [Example 4, (2S)-1-butanoyl-N-[(1S)-1-[[(1S)-3-[(3,5-difluorobenzoyl)amino]-1-(hydroxycarbamoyl)propyl]carbamoyl]-2-methyl-butyl]-N-methyl-pyrrolidine-2-carboxamide] are 13.3 µM, 4.73 µM and 0.062 µM.
In the same order, the values of `CCC(C)[C@@H](C(=O)N[C@@H](CCNC(=O)c1cc(F)cc(F)c1)C(=O)NO)N(C)C(=O)[C@@H]1CCCN1C(=O)[C@H](C)N(C)C(C)=O` (stereo partly drawn) [Example 12, (2 S)-1-[(2S)-2-[acetyl(methyl)amino]propanoyl]-N-[(1S)-1-[[(1S)-3-[(3,5-difluorobenzoyl)amino]-1-(hydroxycarbamoyl)propyl]carbamoyl]-2-methyl-butyl]-N-methyl-pyrrolidine-2-carboxamide] (Ac-[NMeA]P[NMeIle(3ξ)][Dab](Benzoyl(3,5-F2))-{NHOH}) are 157 µM, 14.9 µM and 0.021 µM.
Consider `CCCCCCCC(=O)N1CCC[C@H]1C(=O)N(C)[C@H](C(=O)N[C@@H](CCNC(=O)c1cc(F)cc(F)c1)C(=O)NO)C(C)CC` (stereo partly drawn) [Example 6, (2S)—N-[(1S)-1-[[(1S)-3-[(3,5-difluorobenzoyl)amino]-1-(hydroxycarbamoyl)propyl]carbamoyl]-2-methyl-butyl]-N-methyl-1-octanoyl-pyrrolidine-2-carboxamide], for which the values for the concentration for half-maximal inhibition (IC50) at MMP-3, at MMP-1 and on MMP-2 were 53.4 µM, 25.6 µM and 0.4 µM, respectively.
Turning to `CCCCCC(=O)N1CC(F)(F)C[C@H]1C(=O)N(C)[C@H](C(=O)N[C@@H](CCNC(=O)c1cc(F)cc(F)c1)C(=O)NO)C(C)CC` (stereo partly drawn) [Example 7, (2S)—N-[(1S)-1-[[(1S)-3-[(3,5-difluorobenzoyl)amino]-1-(hydroxycarbamoyl)propyl]carbamoyl]-2-methyl-butyl]-4,4-difluoro-1-hexanoyl-N-methyl-pyrrolidine-2-carboxamide], the IC50 on MMP-3 stood at 22.5 µM; on MMP-1, 24.7 µM; on MMP-2 it was 0.159 µM.
`CCC(C)[C@@H](C(=O)N[C@@H](CCNC(=O)c1cc(F)cc(F)c1)C(=O)NO)N(C)C(=O)[C@@H]1CC(F)(F)CN1C(=O)CCCOc1ccccc1` (stereo partly drawn) [Example 10, (2S)—N-[(1S)-1-[[(1S)-3-[(3,5-difluorobenzoyl)amino]-1-(hydroxycarbamoyl)propyl]carbamoyl]-2-methyl-butyl]-4,4-difluoro-N-methyl-1-(4-phenoxybutanoyl)pyrrolidine-2-carboxamide]: the IC50 at MMP-3 was 160 µM; on MMP-1, 6.61 µM; on MMP-2, 0.037 µM.
On to `CCCCCC(=O)N1CCC[C@H]1C(=O)N(C)[C@H](C(=O)N[C@@H](CCNC(=O)c1ccccc1)C(=O)NO)C(C)CC` (stereo partly drawn) [Example 15, (2S)—N-[(1S)-1-[[(1S)-3-benzamido-1-(hydroxycarbamoyl)propyl]carbamoyl]-2-methyl-butyl]-N-methyl-1-hexanoyl-pyrrolidine-2-carboxamide] (Hexanoyl-Pro-[NMeIle(3ξ)]-[Dab](Bz)-{NHOH}), for which the IC50 on MMP-3 is 9.89 µM; on MMP-1, 10.8 µM; on MMP-2, 0.285 µM.
For the molecule `CCCCCC(=O)N1C[C@H](F)C[C@H]1C(=O)N(C)[C@H](C(=O)N[C@@H](CCNC(=O)c1ccccc1)C(=O)NO)C(C)CC` (stereo partly drawn) [Example 16, (2S,4R)—N-[(1S)-1-[[(1S)-3-benzamido-1-(hydroxycarbamoyl)propyl]carbamoyl]-2-methyl-butyl]-4-fluoro-N-methyl-1-hexanoyl-pyrrolidine-2-carboxamide] (Hexanoyl-[Pro(trans-4-F)]-[NMeIle(3ξ)]-[Dab](Bz)-{NHOH}), the “MMP-3 IC50” value on MMP-3 is less than 1 µM. The “MMP-1 IC50” value on MMP-1 was less than 1 µM. The IC50 on MMP-2 is less than 0.001 µM.
In the case of `CCC(C)[C@@H](C(=O)N[C@@H](CCNC(=O)c1ccc(F)cc1)C(=O)NO)N(C)C(=O)[C@@H]1CCCN1C(C)=O` (stereo partly drawn) [Example 1, (2S)-1-acetyl-N-[(1S)-1-[[(1S)-3-[(4-fluorobenzoyl)amino]-1-(hydroxycarbamoyl)propyl]carbamoyl]-2-methyl-butyl]-N-methyl-pyrrolidine-2-carboxamide], the IC50 on MMP-3 worked out at 30.1 µM; at MMP-2, 0.202 µM. Also, the “MMP-1 IC50” value on MMP-1 was less than 1 µM.
